Legend:
[1] = Selectivity ratio of RBA for ERbeta to RBA for ERalpha
[2] = biological target: T1, Estrogen receptor (Homo sapiens) (UniProt P03372); assay: Displacement of [3H]estradiol form ERalpha assessed as relative binding affinity relative to estradiol
T1 sequence (whole entry): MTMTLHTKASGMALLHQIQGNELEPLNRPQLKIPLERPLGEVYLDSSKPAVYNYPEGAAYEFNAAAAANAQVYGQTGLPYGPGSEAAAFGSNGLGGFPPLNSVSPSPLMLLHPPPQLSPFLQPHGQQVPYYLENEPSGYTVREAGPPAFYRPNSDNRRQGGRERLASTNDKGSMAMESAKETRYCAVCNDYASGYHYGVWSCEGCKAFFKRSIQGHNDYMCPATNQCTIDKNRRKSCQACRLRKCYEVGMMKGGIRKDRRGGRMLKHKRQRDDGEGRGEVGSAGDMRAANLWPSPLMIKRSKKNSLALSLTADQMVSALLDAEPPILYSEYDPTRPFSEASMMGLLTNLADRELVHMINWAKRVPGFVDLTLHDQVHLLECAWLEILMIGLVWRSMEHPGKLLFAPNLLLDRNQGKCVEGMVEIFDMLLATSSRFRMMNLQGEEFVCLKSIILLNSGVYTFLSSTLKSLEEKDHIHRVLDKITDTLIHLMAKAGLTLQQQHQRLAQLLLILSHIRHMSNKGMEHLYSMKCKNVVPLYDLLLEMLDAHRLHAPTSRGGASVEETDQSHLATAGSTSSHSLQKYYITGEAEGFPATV

[3] = biological target: Estrogen receptor beta (Homo sapiens) (UniProt Q92731); assay: Displacement of [3H]estradiol form ERbeta assessed as relative binding affinity relative to estradiol
[4] = biological target: T1, Estrogen receptor (Homo sapiens); assay: Activity at ERalpha expressed in CHO cells co-transfected with ERE plasmid assessed as relative transcriptional activation at 10 nM by luciferase reporter assay relative to estradiol; format: cell-based
[5] = biological target: Estrogen receptor beta (Homo sapiens) (UniProt Q92731); assay: Activity at ERbeta expressed in CHO cells co-transfected with ERE plasmid assessed as relative transcriptional activation at 10 nM by luciferase reporter assay relative to estradiol; format: cell-based

Estrogen receptor beta (Homo sapiens), sequence (Q92731 whole entry): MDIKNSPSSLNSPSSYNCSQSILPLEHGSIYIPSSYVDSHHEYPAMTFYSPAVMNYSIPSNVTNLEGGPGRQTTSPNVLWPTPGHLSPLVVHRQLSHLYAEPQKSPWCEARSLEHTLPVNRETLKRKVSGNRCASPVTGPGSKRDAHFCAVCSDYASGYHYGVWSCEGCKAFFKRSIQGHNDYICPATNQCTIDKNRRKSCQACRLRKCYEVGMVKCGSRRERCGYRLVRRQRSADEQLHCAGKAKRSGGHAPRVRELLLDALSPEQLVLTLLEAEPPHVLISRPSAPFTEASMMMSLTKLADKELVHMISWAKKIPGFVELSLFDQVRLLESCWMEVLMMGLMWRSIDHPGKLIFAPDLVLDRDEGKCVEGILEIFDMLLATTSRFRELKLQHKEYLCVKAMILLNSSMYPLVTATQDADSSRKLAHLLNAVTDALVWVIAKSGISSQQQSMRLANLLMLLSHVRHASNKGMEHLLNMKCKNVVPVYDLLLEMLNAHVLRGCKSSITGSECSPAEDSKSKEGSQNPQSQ

`C[C@]12CC[C@@H](c3ccc(O)cc3)C[C@@H]1CC[C@@H]2O` gave a Selectivity ratio [1] of 9.8, an RBA [2] of 0.06% and an RBA [3] of 0.59%.

Compound `C[C@]12CC[C@H](c3cc(F)c(O)c(F)c3F)C[C@@H]1CC[C@@H]2O` has a Selectivity ratio [1] of 9.1, an RBA [2] of 0.19% and an RBA [3] of 1.73%.

`C[C@]12CC[C@H](c3ccc(O)cc3F)C[C@@H]1CC[C@@H]2O` gave an Activity [4] of 44%, a Selectivity ratio [1] of 5 and an RBA [2] of 27%. It also gave an Activity [5] of 146% and an RBA [3] of 135%.

Work on `C[C@]12CC[C@H](c3ccc(O)cc3)C[C@@H]1CC[C@@H]2O` yielded an Activity [4] of 4.3%, a Selectivity ratio [1] of 14 and an RBA [2] of 1.5%. For the same compound, the Activity [5] was 164% and the RBA [3] was 21.5%.

`C[C@]12CC[C@H](c3cc(F)c(O)c(F)c3)C[C@@H]1CC[C@@H]2O` showed a Selectivity ratio [1] of 7, an RBA [2] of 0.04% and an RBA [3] of 0.28%.

With `C[C@]12CC[C@H](c3ccc(O)cc3Cl)C[C@@H]1CC[C@@H]2O` the Selectivity ratio [1] was 3.4 and the RBA [2] was 49%.

Work on `C[C@]12CC[C@H](c3ccc(O)c(F)c3F)C[C@@H]1CC[C@@H]2O` yielded a Selectivity ratio [1] of 9.3, an RBA [2] of 4.6% and an RBA [3] of 43%.

Compound `C=Cc1cc(O)cc2nc(-c3ccc(O)c(F)c3)oc12` has a Selectivity ratio [1] of 226.

`Cc1cc(O)ccc1[C@H]1CC[C@@]2(C)[C@@H](CC[C@@H]2O)C1` showed an Activity [4] of 9.7%, a Selectivity ratio [1] of 12 and an RBA [2] of 2.8%. The Activity [5] was 149% and the RBA [3] was 33.6%.

For `C[C@]12CC[C@H](c3ccc(O)c(F)c3)C[C@@H]1CC[C@@H]2O`, the Activity [4] was 8.3%, the Selectivity ratio [1] was 8.7 and the RBA [2] was 1%. The Activity [5] was 14% and the RBA [3] was 8.7%.

In the case of `O=c1c(-c2ccc(O)cc2)coc2cc(O)cc(O)c12`, the Selectivity ratio [1] is reported as 41.

`C[C@]12CC[C@H](c3cc(F)c(O)cc3F)C[C@@H]1CC[C@@H]2O` showed a Selectivity ratio [1] of 8.7, an RBA [2] of 0.38% and an RBA [3] of 3.3%.

Reference: ChEMBL document CHEMBL1152708, “Deconstructing estradiol: removal of B-ring generates compounds which are potent and subtype-selective estrogen receptor agonists” (Bioorg Med Chem Lett, 2009)
